In patent publication US20240384350A1, “METHODS OF TREATING CANCER WITH KINASE INHIBITORS” (BOARD OF REGENTS, THE UNIVERSITY OF TEXAS SYSTEM, priority 2021, published 2024):

What was measured:
Assay in all cases: Ba/F3 drug screening, Cell Titer Glo, IC50 Mut/WT
Type in all cases: cell-based
[1] = target: T1, EGFR Ex19del G724S (Homo sapiens, UniProt P00533, DEL746-750/G724S); conditions: Ba/F3 cells, EGFR Ex19del G724S (PACC), Mut/WT
T1 construct: expressed in transfected cells; host or cells: Ba/F3

[2] = target: T2, EGFR G719A T790M (Homo sapiens, UniProt P00533, G719A/T790M); conditions: T790M-like-3S, 72 hours
T2 construct: expressed in transfected cells; host or cells: Ba/F3
Experimental: (§1) Data represent the ratio of the IC50 value for a given TKI for cells with a T790M-like-3S EGFR mutation to the IC50 value for cells with wildtype EGFR.
(§2) Ba/F3 cell generation, drug screening, and IC50 approximations. Ba/F3 cells were obtained as a gift from Dr. Gordon Mills (MD Anderson Cancer Center), and maintained in RPMI (Sigma) containing 10% FBS, 1% penicillin/streptomycin, and 10 ng/ml recombinant mIL-3 (R&D Biosystems). To establish stable Ba/F3 cell lines, Ba/F3 cells were transduced with retroviruses containing mutant EGFR plasmids for 12-24 hours.
(§3) After 48-72 hours of transduction, 2 μg/ml puromycin (Invitrogen) was added to Ba/F3 cell lines in complete RPMI. To select for EGFR positive cell lines, cells were stained with PE-EGFR (Biolegend) and sorted by FACS. After sorting, EGFR positive cells were maintained in RPMI containing 10% FBS, 1% penicillin/streptomycin, and 1 ng/ml EGF to support cell viability. Drug screening was performed as previously described^41,42. Shortly, cells were plated in 384-well plates (Greiner Bio-One) at 2000-3000 cells per well in technical triplicate. Seven different concentrations of TKIs or DMSO vehicle were added to reach a final volume of 40 μL per well. After 72 hours, 11 μL of Cell Titer Glo (Promega) was added to each well. Plates were incubated for a minimum of 10 minutes, and bioluminescence was determined using a FLUOstar OPTIMA plate reader (BMG LABTECH). Raw bioluminescence values were normalized to DMSO control treated cells, and values were plotted in GraphPad Prism. […] Drug screens were performed in technical triplicate on each plate and either duplicate or triplicate biological replicates.

[3] = target: T3, EGFR E709A (Homo sapiens, UniProt P00533, E709A); conditions: Ba/F3 cells, EGFR E709A (PACC), Mut/WT
T3 construct: expressed in transfected cells; host or cells: Ba/F3

[4] = target: T4, EGFR G719A L861Q (Homo sapiens, UniProt P00533, G719A/L861Q); conditions: Ba/F3 cells, EGFR G719A L861Q (PACC), Mut/WT
T4 construct: expressed in transfected cells; host or cells: Ba/F3

[5] = target: T5, EGFR L861Q (Homo sapiens, UniProt P00533, L861Q); conditions: Classical-Like, 72 hours
T5 construct: expressed in transfected cells; host or cells: Ba/F3 cells, retroviral pBabe-Puro vector

[6] = target: T6, EGFR V774M (Homo sapiens, UniProt P00533, V774M); conditions: Ba/F3 cells, EGFR V774M (PACC), Mut/WT
T6 construct: host or cells: Ba/F3

[7] = target: T7, EGFR A767insASV (Homo sapiens, UniProt P00533, DUP767-769); conditions: Ex20, 72 hours
T7 construct: expressed in transfected cells; host or cells: Ba/F3 cells, retroviral pBabe-Puro vector

[8] = target: T8, EGFR L718Q T790M (Homo sapiens, UniProt P00533, L718Q/T790M); conditions: T790M-like-3R, 72 hours
T8 construct: expressed in transfected cells; host or cells: Ba/F3
Experimental: Data represent the ratio of the IC50 value for a given TKI for cells with a T790M-like-3R EGFR mutation to the IC50 value for cells with wildtype EGFR.
as §2
After 48-72 hours of transduction, 2 μg/ml puromycin (Invitrogen) was added to Ba/F3 cell lines in complete RPMI. To select for EGFR positive cell lines, cells were stained with PE-EGFR (Biolegend) and sorted by FACS. After sorting, EGFR positive cells were maintained in RPMI containing 10% FBS, 1% penicillin/streptomycin, and 1 ng/ml EGF to support cell viability. […] Shortly, cells were plated in 384-well plates (Greiner Bio-One) at 2000-3000 cells per well in technical triplicate. Seven different concentrations of TKIs or DMSO vehicle were added to reach a final volume of 40 μL per well. After 72 hours, 11 μL of Cell Titer Glo (Promega) was added to each well. Plates were incubated for a minimum of 10 minutes, and bioluminescence was determined using a FLUOstar OPTIMA plate reader (BMG LABTECH). Raw bioluminescence values were normalized to DMSO control treated cells, and values were plotted in GraphPad Prism. […] Drug screens were performed in technical triplicate on each plate and either duplicate or triplicate biological replicates. […] Statistical differences between groups were determined by ANOVA as described in the figure legends.

[9] = target: T9, EGFR L858R T790M L792H (Homo sapiens, UniProt P00533, L792H/L858R/T790M); conditions: T790M-like-3S, 72 hours
T9 construct: expressed in transfected cells; host or cells: Ba/F3
Experimental: as §1, §2, §3

[10] = target: T10, EGFR L858R T790M V843I (Homo sapiens, UniProt P00533, L858R/T790M/V843I); conditions: T790M-like-3S, 72 hours
T10 construct: expressed in transfected cells; host or cells: Ba/F3
Experimental: as §1, §2, §3

[11] = target: T11, EGFR L747P (Homo sapiens, UniProt P00533, L747P); conditions: Ba/F3 cells, EGFR L747P (PACC), Mut/WT
T11 construct: expressed in transfected cells; host or cells: Ba/F3

[12] = target: T12, EGFR L718V (Homo sapiens, UniProt P00533, L718V); conditions: Ba/F3 cells, EGFR L718V (PACC), Mut/WT
T12 construct: expressed in transfected cells; host or cells: Ba/F3
Experimental: (§4) Data represent the ratio of the IC50 value for a given TKI for cells with a PACC EGFR mutation to the IC50 value for cells with wildtype EGFR.
as §2, §3

[13] = target: T13, EGFR L747S (Homo sapiens, UniProt P00533, L747S); conditions: Ba/F3 cells, EGFR L747S (PACC), Mut/WT
T13 construct: expressed in transfected cells; host or cells: Ba/F3

[14] = target: T14, EGFR A763insFQEA (Homo sapiens, UniProt P00533, INS763FQEA); conditions: Classical-Like, 72 hours
T14 construct: expressed in transfected cells; host or cells: Ba/F3 cells, retroviral pBabe-Puro vector

[15] = target: T15, EGFR L858R L718Q (Homo sapiens, UniProt P00533, L718Q/L858R); conditions: Ba/F3 cells, EGFR L858R L718Q (PACC), Mut/WT
T15 construct: host or cells: Ba/F3

[16] = target: T16, EGFR V769L (Homo sapiens, UniProt P00533, V769L); conditions: Ba/F3 cells, EGFR V769L (PACC), Mut/WT
T16 construct: expressed in transfected cells; host or cells: Ba/F3

[17] = target: T17, EGFR S811F (Homo sapiens, UniProt P00533, S811F); conditions: Classical-Like, 72 hours
T17 construct: expressed in transfected cells; host or cells: Ba/F3 cells, retroviral pBabe-Puro vector (vector made by GeneScript from EGFR WT)

[18] = target: T18, EGFR S784F (Homo sapiens, UniProt P00533, S784F); conditions: Classical-Like, 72 hours
T18 construct: expressed in transfected cells; host or cells: Ba/F3 cells, retroviral pBabe-Puro vector (vector made by GeneScript from EGFR WT)

[19] = target: T19, EGFR Ex19del L718Q (Homo sapiens, UniProt P00533, DEL746-750/L718Q); conditions: Ba/F3 cells, EGFR Ex19del L718Q (PACC), Mut/WT
T19 construct: expressed in transfected cells; host or cells: Ba/F3
Experimental: as §4, §2, §3

[20] = target: T20, EGFR E709K G719S (Homo sapiens, UniProt P00533, E709K/G719S); conditions: Ba/F3 cells, EGFR E709K G719S (PACC), Mut/WT
T20 construct: expressed in transfected cells; host or cells: Ba/F3

[21] = target: T21, EGFR Ex19del L718V (Homo sapiens, UniProt P00533, DEL746-750/L718V); conditions: Ba/F3 cells, EGFR Ex19del L718V (PACC), Mut/WT
T21 construct: expressed in transfected cells; host or cells: Ba/F3

[22] = target: T22, EGFR A763insLQEA (Homo sapiens, UniProt P00533, INS763LQEA); conditions: Classical-Like, 72 hours
T22 construct: expressed in transfected cells; host or cells: Ba/F3 cells, retroviral pBabe-Puro vector
Experimental: Data represent the ratio of the IC50 value for a given TKI for cells with a classical-like EGFR mutation to the IC50 value for cells with wildtype EGFR.
as §2
After 48-72 hours of transduction, 2 μg/ml puromycin (Invitrogen) was added to Ba/F3 cell lines in complete RPMI. To select for EGFR positive cell lines, cells were stained with PE-EGFR (Biolegend) and sorted by FACS. After sorting, EGFR positive cells were maintained in RPMI containing 10% FBS, 1% penicillin/streptomycin, and 1 ng/ml EGF to support cell viability. […] Shortly, cells were plated in 384-well plates (Greiner Bio-One) at 2000-3000 cells per well in technical triplicate. Seven different concentrations of TKIs or DMSO vehicle were added to reach a final volume of 40 μL per well. After 72 hours, 11 μL of Cell Titer Glo (Promega) was added to each well. Plates were incubated for a minimum of 10 minutes, and bioluminescence was determined using a FLUOstar OPTIMA plate reader (BMG LABTECH). Raw bioluminescence values were normalized to DMSO control treated cells, and values were plotted in GraphPad Prism. […] Drug screens were performed in technical triplicate on each plate and either duplicate or triplicate biological replicates.

[23] = target: T23, EGFR L858R/T790M/C797S (Homo sapiens, UniProt P00533, C797S/L858R/T790M); conditions: T790M-like-3R, 72 hours
T23 construct: expressed in transfected cells; host or cells: Ba/F3

[24] = target: T24, EGFR S768I/V769L (Homo sapiens, UniProt P00533, S768I/V769L); conditions: Ba/F3 cells, EGFR S768I/V769L (PACC), Mut/WT
T24 construct: host or cells: Ba/F3

[25] = target: T25, EGFR S768dupSVD (Homo sapiens, UniProt P00533, DUP768-770); conditions: Ex20, 72 hours
T25 construct: expressed in transfected cells; host or cells: Ba/F3 cells, retroviral pBabe-Puro vector

[26] = target: T26, EGFR L718Q (Homo sapiens, UniProt P00533, L718Q); conditions: Ba/F3 cells, EGFR L718Q (PACC), Mut/WT
T26 construct: expressed in transfected cells; host or cells: Ba/F3

[27] = target: T27, EGFR S768I/T790M (Homo sapiens, UniProt P00533, S768I/T790M); conditions: T790M-like-3S, 72 hours
T27 construct: expressed in transfected cells; host or cells: Ba/F3
Experimental: as §1, §2, §3

ratio of the IC50 value for cells with a PACC EGFR mutation to the IC50 value for cells with wildtype EGFR [1]: 1.068 | ratio of IC50 for cells with mutant EGFR to IC50 for cells with wildtype EGFR (Mut/WT) [2]: 0.02653 | ratio of the IC50 value for cells with a PACC EGFR mutation to the IC50 value for cells with wildtype EGFR [3]: 0.07784 | ratio of the IC50 value for cells with a PACC EGFR mutation to the IC50 value for cells with wildtype EGFR [4]: 0.06344 | ratio of IC50 for cells with mutant EGFR to IC50 for cells with wildtype EGFR (Mut/WT) [5]: 0.03861 | ratio of the IC50 value for cells with a PACC EGFR mutation to the IC50 value for cells with wildtype EGFR [6]: 0.1179 | ratio of IC50 for cells with mutant EGFR to IC50 for cells with wildtype EGFR (Mut/WT) [7]: 0.6382 | ratio of IC50 for cells with mutant EGFR to IC50 for cells with wildtype EGFR (Mut/WT) [8]: 0.317 | ratio of IC50 for cells with mutant EGFR to IC50 for cells with wildtype EGFR (Mut/WT) [9]: 0.02884 | ratio of IC50 for cells with mutant EGFR to IC50 for cells with wildtype EGFR (Mut/WT) [10]: 0.02498 | ratio of the IC50 value for cells with a PACC EGFR mutation to the IC50 value for cells with wildtype EGFR [11]: 0.2221 | ratio of the IC50 value for cells with a PACC EGFR mutation to the IC50 value for cells with wildtype EGFR [12]: 1.157 | ratio of the IC50 value for cells with a PACC EGFR mutation to the IC50 value for cells with wildtype EGFR [13]: 0.06302 | ratio of IC50 for cells with mutant EGFR to IC50 for cells with wildtype EGFR (Mut/WT) [14]: 0.05676 | ratio of the IC50 value for cells with a PACC EGFR mutation to the IC50 value for cells with wildtype EGFR [15]: 0.6234 | ratio of the IC50 value for cells with a PACC EGFR mutation to the IC50 value for cells with wildtype EGFR [16]: 0.1771 | ratio of IC50 for cells with mutant EGFR to IC50 for cells with wildtype EGFR (Mut/WT) [17]: 0.00115 | ratio of IC50 for cells with mutant EGFR to IC50 for cells with wildtype EGFR (Mut/WT) [18]: 0.03107 | ratio of the IC50 value for cells with a PACC EGFR mutation to the IC50 value for cells with wildtype EGFR [19]: 0.03801 | ratio of the IC50 value for cells with a PACC EGFR mutation to the IC50 value for cells with wildtype EGFR [20]: 0.4195 | ratio of the IC50 value for cells with a PACC EGFR mutation to the IC50 value for cells with wildtype EGFR [21]: 0.04632 | ratio of IC50 for cells with mutant EGFR to IC50 for cells with wildtype EGFR (Mut/WT) [22]: 0.05507 | ratio of IC50 for cells with mutant EGFR to IC50 for cells with wildtype EGFR (Mut/WT) [23]: 2.649 | ratio of the IC50 value for cells with a PACC EGFR mutation to the IC50 value for cells with wildtype EGFR [24]: 0.2253 | ratio of IC50 for cells with mutant EGFR to IC50 for cells with wildtype EGFR (Mut/WT) [25]: 0.4008 | ratio of the IC50 value for cells with a PACC EGFR mutation to the IC50 value for cells with wildtype EGFR [26]: 1.245 | ratio of IC50 for cells with mutant EGFR to IC50 for cells with wildtype EGFR (Mut/WT) [27]: 0.0197
SMILES: Cc1cc(C(=O)Nc2nc3cccc(Cl)c3n2[C@@H]2CCCCN(C(=O)/C=C/CN(C)C)C2)ccn1 [Nazartinib]
